Experiments:
Conditions in all cases: 72 h
Caco-2 [1] = test: cell viability relative to DMSO; higher = less toxic
Calu-3 [2] = test: as above
HepG2 [3] = test: as above
U2OS [4] = test: as above
Vero E6 [5] = test: as above
Caco-2 [6] = test: relative viability EC50 (midpoint between 100% and the lowest measured viability); higher = less toxic
Calu-3 [7] = test: as above
HepG2 [8] = test: as above
U2OS [9] = test: as above
Vero E6 [10] = test: as above
Caco-2 [11] = test: drug sensitivity score (DSS) for viability; higher = more toxic; extreme values may be limits of the assay
Calu-3 [12] = test: as above
HepG2 [13] = test: as above
U2OS [14] = test: as above
Vero E6 [15] = test: as above

| SMILES | cell viability (Caco-2 [1]; 1 nM) | cell viability (Caco-2 [1]; 10 nM) | cell viability (Caco-2 [1]; 100 nM) | cell viability (Caco-2 [1]; 1000 nM) | cell viability (Caco-2 [1]; 10000 nM) | cell viability (Calu-3 [2]; 1 nM) | cell viability (Calu-3 [2]; 10 nM) | cell viability (Calu-3 [2]; 100 nM) | cell viability (Calu-3 [2]; 1000 nM) | cell viability (Calu-3 [2]; 10000 nM) | cell viability (HepG2 [3]; 1 nM) | cell viability (HepG2 [3]; 10 nM) | cell viability (HepG2 [3]; 100 nM) | cell viability (HepG2 [3]; 1000 nM) | cell viability (HepG2 [3]; 10000 nM) | cell viability (U2OS [4]; 1 nM) | cell viability (U2OS [4]; 10 nM) | cell viability (U2OS [4]; 100 nM) | cell viability (U2OS [4]; 1000 nM) | cell viability (U2OS [4]; 10000 nM) | cell viability (Vero E6 [5]; 1 nM) | cell viability (Vero E6 [5]; 10 nM) | cell viability (Vero E6 [5]; 100 nM) | cell viability (Vero E6 [5]; 1000 nM) | cell viability (Vero E6 [5]; 10000 nM) | relative viability EC50 (Caco-2 [6]) | relative viability EC50 (Calu-3 [7]) | relative viability EC50 (HepG2 [8]) | relative viability EC50 (U2OS [9]) | relative viability EC50 (Vero E6 [10]) | drug sensitivity score (Caco-2 [11]) | drug sensitivity score (Calu-3 [12]) | drug sensitivity score (HepG2 [13]) | drug sensitivity score (U2OS [14]) | drug sensitivity score (Vero E6 [15]) |
| --- | --- | --- | --- | --- | --- | --- | --- | --- | --- | --- | --- | --- | --- | --- | --- | --- | --- | --- | --- | --- | --- | --- | --- | --- | --- | --- | --- | --- | --- | --- | --- | --- | --- | --- | --- |
| O=C(O)Cn1c2c(c3cc(F)ccc31)CN(C(=O)c1cccc3ccccc13)CC2 [setipiprant] | 91% | 103% | 103% | 95% | 99.1% | 91.9% | 115% | 93.1% | 98.7% | 86.5% | 98% | 96.3% | 108% | 101% | 102% | 101% | 105% | 102% | 104% | 98.4% | 94.2% | 102% | 97.3% | 99.9% | 102% | > 10 µM | > 10 µM | > 10 µM | > 10 µM | > 10 µM | 0 | 0.2 | 0 | 0 | 0 |
| C[C@@H]1CC[C@@]2(NC1)O[C@H]1C[C@H]3[C@@H]4CC=C5C[C@@H](O[C@@H]6O[C@H](CO)[C@@H](O[C@@H]7O[C@@H](C)[C@H](O)[C@@H](O)[C@H]7O)[C@H](O)[C@H]6O[C@@H]6O[C@@H](C)[C@H](O)[C@@H](O)[C@H]6O)CC[C@]5(C)[C@H]4CC[C@]3(C)[C@H]1[C@@H]2C [solamargine] | 92% | 98% | 94.6% | 96% | 0.4% | 89% | 96.7% | 85.8% | 103% | 1% | 104% | 102% | 102% | 89.8% | 0.2% | 95.7% | 103% | 97.5% | 99.1% | 0.4% | 101% | 95.2% | 97.4% | 91.9% | 0% | 2.86 µM | 3.34 µM | 2.32 µM | 3.1 µM | 2.51 µM | 6.1 | 5.3 | 7.2 | 5.7 | 6.8 |
| O=C1C=CC[C@@H]2[C@H]3CCCN4CCC[C@@H](CN12)[C@@H]34 [sophocarpine] | 93.8% | 95.9% | 110% | 97% | 90.3% | 98.8% | 103% | 103% | 98% | 102% | 92.1% | 99.1% | 80.5% | 91.2% | 89.4% | 97.3% | 96.4% | 100% | 98.5% | 106% | 97.8% | 113% | 106% | 109% | 100% | > 10 µM | > 10 µM | > 10 µM | > 10 µM | > 10 µM | 0 | 0 | 0 | 0 | 0 |
| C[C@]12Cc3c[nH]nc3C[C@@H]1CC[C@@H]1[C@@H]2CC[C@@]2(C)[C@H]1CC[C@]2(C)O [stanozolol] | 101% | 95% | 104% | 107% | 91.4% | 95% | 100% | 103% | 94.1% | 107% | 103% | 98.5% | 101% | 104% | 94.1% | 98.5% | 101% | 96.9% | 96.3% | 97.3% | 101% | 109% | 102% | 106% | 95% | > 10 µM | > 10 µM | > 10 µM | > 10 µM | > 10 µM | 0 | 0 | 0 | 0 | 0 |
| O=[N+]([O-])c1ccc2c(c1)S(=O)(=O)C=C2 [stattic] | 97.6% | 90.3% | 99% | 91.2% | 16.1% | 107% | 95.2% | 97.7% | 117% | 27.3% | 96.3% | 95.7% | 107% | 102% | -0.2% | 99.1% | 95.6% | 98.6% | 94% | 0.6% | 95.8% | 99% | 99.1% | 95.3% | 2.5% | 2.3 µM | 3.99 µM | 3.29 µM | 2.69 µM | 2.79 µM | 6.1 | 3.2 | 5.4 | 6.4 | 6.1 |
| CC(C)(C)C(=O)OCOC(=O)[C@@H]1N2C(=O)C[C@H]2S(=O)(=O)C1(C)C [sulbactam-pivoxil] | 99.3% | 90.6% | 93.5% | 98.6% | 101% | 98.5% | 97.4% | 109% | 108% | 101% | 98.2% | 100% | 96.2% | 105% | 103% | 95.7% | 96.6% | 94.9% | 98.6% | 95.3% | 99.3% | 104% | 100% | 99.1% | 99.2% | > 10 µM | > 10 µM | > 10 µM | > 10 µM | > 10 µM | 0 | 0 | 0 | 0 | 0 |
| Cc1noc(NS(=O)(=O)c2ccc(N)cc2)c1C [sulfafurazole] | 95.7% | 94.2% | 96.6% | 94% | 103% | 96.2% | 92.7% | 105% | 107% | 98.1% | 93% | 94.3% | 90.6% | 102% | 100% | 100% | 96.5% | 99.5% | 96% | 101% | 101% | 96.6% | 98.6% | 99.2% | 98.7% | > 10 µM | > 10 µM | > 10 µM | > 10 µM | > 10 µM | 0 | 0 | 0 | 0 | 0 |
| COc1ccc(CC2NCCc3cc(OC)c(OC)cc32)cc1OC (stereo not given) [tetrahydropapaverine] | 99.8% | 99% | 99.5% | 102% | 94.4% | 95.9% | 86.9% | 99.7% | 83.3% | 98.7% | 99.1% | 99.9% | 91.5% | 98.6% | 103% | 99.5% | 93.2% | 103% | 90.9% | 96.9% | 94.3% | 99.8% | 95.3% | 98.6% | 104% | > 10 µM | > 10 µM | > 10 µM | > 10 µM | > 10 µM | 0 | 0 | 0 | 0 | 0 |
| CN1CCN(CCCN2c3ccccc3Sc3ccc(S(=O)(=O)N(C)C)cc32)CC1 [thioproperazine] | 95.7% | 93.3% | 89.6% | 113% | 79% | 98% | 93.5% | 105% | 103% | 90.9% | 108% | 103% | 105% | 99.6% | 92.5% | 107% | 97.1% | 104% | 99.7% | 97.9% | 99.3% | 95.9% | 94.9% | 85.2% | 90.6% | > 10 µM | > 10 µM | > 10 µM | > 10 µM | > 10 µM | 0.4 | 0 | 0 | 0 | 0.6 |
| [Cl][Ti][Cl].c1cc[cH-]c1.c1cc[cH-]c1 [titanocene-dichloride] | 97.7% | 98.2% | 99.2% | 94.6% | 95.8% | 99.2% | 97.1% | 112% | 97.1% | 110% | 89.6% | 91.9% | 97.2% | 104% | 101% | 93.2% | 93.1% | 97.5% | 94.6% | 96.1% | 93.7% | 95.2% | 93.4% | 98.9% | 105% | > 10 µM | > 10 µM | > 10 µM | > 10 µM | > 10 µM | 0 | 0 | 0 | 0 | 0 |
| Cc1ccc(O)c([C@H](CCN(C(C)C)C(C)C)c2ccccc2)c1 [tolterodine] | 102% | 89.6% | 98.5% | 85.9% | 108% | 99.7% | 94.1% | 88.6% | 88.6% | 95.8% | 115% | 98.5% | 102% | 105% | 92.7% | 99.9% | 94.4% | 99.9% | 98.7% | 96.1% | 105% | 99.8% | 102% | 103% | 96.9% | > 10 µM | > 10 µM | > 10 µM | > 10 µM | > 10 µM | 0 | 0.8 | 0 | 0 | 0 |
| CS(=O)(=O)OC[C@H](O)[C@@H](O)COS(C)(=O)=O [treosulfan] | 95.6% | 96.4% | 102% | 90.9% | 99.3% | 105% | 104% | 102% | 98.8% | 111% | 93.1% | 93.6% | 94.6% | 108% | 108% | 104% | 94.7% | 103% | 94% | 99.2% | 92.3% | 100% | 92.5% | 98.2% | 106% | > 10 µM | > 10 µM | > 10 µM | > 10 µM | > 10 µM | 0 | 0 | 0 | 0 | 0 |
| CCN(Cc1ccncc1)C(=O)C(CO)c1ccccc1 (stereo not given) [tropicamide] | 86.2% | 96.9% | 97.2% | 89.4% | 101% | 98.6% | 90.5% | 101% | 95.9% | 103% | 106% | 98% | 107% | 91.9% | 97.8% | 91.7% | 98.8% | 95.4% | 99% | 103% | 94.2% | 88.8% | 91.8% | 84.8% | 102% | > 10 µM | > 10 µM | > 10 µM | > 10 µM | > 10 µM | 0 | 0 | 0 | 0 | 0 |
| O=C(CCCCCCC(=O)Nc1ccccc1)NO [vorinostat] | 89.9% | 99.9% | 93.9% | 93.9% | 2.5% | 96.1% | 96.9% | 87.2% | 62.1% | 20.2% | 111% | 98.2% | 98.1% | 69.8% | 3% | 97.4% | 96.3% | 94.9% | 79.5% | 2.2% | 99.5% | 99.5% | 103% | 88.9% | 0.3% | 2.66 µM | 0.91 µM | 1.37 µM | 1.7 µM | 2.25 µM | 6.3 | 9.1 | 9.7 | 8.7 | 7.3 |

Source: the supplement of paper PMC13380429
